In the METLIN SMRT retention time set (Domingo-Almenara et al. 2019) one finds RP-LC retention time data, which are given here for 79 compounds.

The nature of this data set: gradient 5% acetonitrile 3 min, to 50% in 2 min, to 85% in 15 min, held 3 min, 100 µL/min. The following applies: column: Zorbax Extend-C18 2.1 x 50 mm; eluents: water / acetonitrile, 0.1% formic acid. Summed up: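 Mixtures of ~100 pure standards were chromatographed on a Zorbax Extend-C18 column (2.1 × 50 mm, 1.8 μm) at 100 μL/min using water and acetonitrile, each with 0.1% formic acid. Detection used a quadrupole time-of-flight mass spectrometer in positive and negative ionization mode, and data collection spanned 3 months. Retention time was obtained from adduct peaks picked computationally and each checked manually.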
In turn, `CN(C)c1ccc(CNC(=O)CCCN2C(=O)CCn3nc(-c4cccn4C)cc32)cc1` gave an RP-LC retention time of 610 s.

The compound `COc1ccc(-c2nc(CN3C(=O)C(O)(c4ccccc4)c4ccccc43)c(C)o2)cc1` (centres undefined) showed an RP-LC retention time of 1040 s. The same measure for `CCOC(=O)c1ccc(Nc2nnc(CSc3nc(C)cc(C)n3)s2)cc1`: 834 s; for `CCC(CC)NC(=O)C1CCN(c2cn[nH]c(=O)c2)CC1`: 604 s; for `NC(=O)c1c(NC(=O)C2=COCCO2)sc2c1CCCCC2`: 987 s. In the case of `O=C(c1ccccc1OCC1CCCN(C2CCC2)C1)N1CCCC1` (centres undefined) it was 615 s; in that of `CC(=O)N1CCCc2cc(S(=O)(=O)CCC(=O)Nc3ccc(C)c(C)c3)ccc21`, 784 s. `O=C(Cc1ccsc1)N1CCn2c(nnc2-c2ccccc2)C1` yielded an RP-LC retention time of 671 s. As to `CSc1ccc(-c2nc3cnccn3c2Nc2ccccc2C)cc1`, the RP-LC retention time was 974 s. In the case of `Cc1ccccc1CNC(=O)C1CCN(S(=O)(=O)c2ccc3c(c2)NC(=O)CO3)CC1` it was 777 s; in that of `Cc1cc2n(n1)CCC(=O)N2CCCC(=O)N1CCN(C(=O)c2ccco2)CC1`, 604 s; in that of `COc1ccc(-c2csc(NC3=NS(=O)(=O)c4ccccc43)n2)cc1`, 886 s. With `CCOC(=O)C1=C(CN2CCCC(C(=O)OCC)C2)NC(=O)NC1c1ccc(C)cc1` (centres undefined), the RP-LC retention time was found to be 674 s.

`Cc1[nH]c(C(=O)N2CCC(CC(=O)NCc3ccc4c(c3)OCO4)CC2)c(C)c1C` came in with an RP-LC retention time of 774 s. The compound `CCOC(=O)CNC(=O)N1CCC(n2c(-c3ccc(C)cc3)nc3cccnc32)C1` (centres undefined) had an RP-LC retention time of 642 s. In the case of `O=C1CC(c2noc(-c3cc(F)cc(F)c3)n2)CN1c1ccc(F)cc1` (centres undefined) it was 944 s. The same measure for `CN1C(=O)C2CCCCN2c2ccc(C(=O)NCCc3ccc(Cl)cc3)cc21` (centres undefined): 971 s; for `Cc1cccc(Cn2nc3ccc(S(=O)(=O)N4CCC(C)CC4)cn3c2=O)c1`: 1040 s. In the case of `Cc1ccc(-n2ccc(=O)c(-c3nc(-c4ccccc4C)no3)n2)cc1` it was 987 s; in that of `Cc1nc2ccc(Cl)cn2c(=O)c1NC(=O)c1ccc([N+](=O)[O-])cc1Cl`, 668 s. `CC1CCCCN1S(=O)(=O)c1ccc2c(c1)CCC(=O)N2CC(=O)NC1CCCCC1` (centres undefined) returned an RP-LC retention time of 921 s.

The compound `Cn1nc(-c2nnc(-c3ccccc3F)o2)c2c1CCN(S(=O)(=O)c1ccc(F)c(Cl)c1)C2` yielded an RP-LC retention time of 990 s. The same measure for `Cc1c(S(=O)(=O)CCNC(=O)Nc2ccc3c(c2)OCO3)c2ccccc2n1C`: 729 s; for `CCOC(=O)c1noc2nc(C)nc(NCCCN3CCN(c4cc(C)ccc4C)CC3)c12`: 774 s; for `Cn1nc2n(c1=O)CCC(NS(=O)(=O)c1cccnc1)CC2` (centres undefined): 579 s.

For `O=S(=O)(Cc1ccccc1)N1CCC2(CCCCO2)CC1`, the RP-LC retention time worked out at 868 s.

For the compound `Cn1nc(C(F)(F)F)cc1C(=O)N1CCCC1c1ccccc1Cl` (centres undefined), the RP-LC retention time was found to be 1030 s.

With `O=c1c2sccc2n(Cc2nc(-c3cccc(Br)c3)no2)c(=O)n1-c1cccc(F)c1`, the RP-LC retention time worked out at 1080 s. The same measure for `Cc1cc(N2CCOCC2)nc(N2CCN(C(=O)c3ccc(C(C)(C)C)cc3)CC2)n1`: 723 s; for `COc1ccc(-c2cn3ccn(-c4ccc(F)c(Cl)c4)c(=O)c3n2)cc1OC`: 804 s.

`Cc1cc(C)cc(Nc2nc(C)cc3nn(CC(=O)N4CCOCC4)c(=O)n23)c1` had an RP-LC retention time of 601 s.

For `CCc1cc(C(=O)N2CCCC2)nc2cc(-c3cccs3)nn12`, the RP-LC retention time came out at 655 s. In the case of `CCOC(=O)c1nc2cc(C)c(C)cc2nc1N1CCN(c2ccccn2)CC1` it was 730 s; in that of `O=C(CCn1cnc2cc(-c3noc(-c4ccccc4Br)n3)ccc21)N1CCOCC1`, 743 s; in that of `CC(=O)N(Cc1nn(C)c2c1CN(S(=O)(=O)c1ccc(F)c(Cl)c1)CC2)c1ccccc1`, 860 s.

`C=CCn1c(=O)c2ccccc2n(Cc2nc(-c3cc(OC)c(OC)c(OC)c3)no2)c1=O` gave an RP-LC retention time of 948 s. In the case of `O=C(c1ccco1)N1CCN=C1N1CCN(c2cccc(Cl)c2)CC1` it was 696 s.

In turn, `COc1cc(-c2nc(C3CC(=O)N(c4ccc(Cl)cc4)C3)no2)cc(OC)c1OC` (centres undefined) gave an RP-LC retention time of 993 s. In turn, `C=CCN1C(=O)COc2ccc(-c3nc(NC(=O)c4ccncc4)sc3C)cc21` returned an RP-LC retention time of 810 s. The compound `CSc1ccc(CCNC(=O)c2nnc(-c3ccc(S(=O)(=O)N4CCCC4)cc3)o2)cc1` displayed an RP-LC retention time of 982 s.

`O=C(Cn1c(-c2cccnc2)nc2ccccc21)Nc1ccc(OC(F)(F)F)cc1` displayed an RP-LC retention time of 853 s. Compound `C=CCn1nnc(NCc2ccc(-c3cccc(Cl)c3)o2)n1` yielded an RP-LC retention time of 1050 s. `COc1ccc(C(=O)N2CCC(c3cc(N)on3)CC2)cc1F` registered an RP-LC retention time of 659 s.

As for `O=C(NCC1CN(CC2CC2)CC12CCCCC2)Nc1ccc(F)cc1` (centres undefined), the RP-LC retention time is 687 s.

`O=S(=O)(NCC(O)C1CCCCC1)c1ccc(OC(F)(F)F)cc1` (centres undefined) yielded an RP-LC retention time of 949 s.

In turn, `Cc1ccc(N2CCC(NC(=O)c3ccccc3)C2=O)cc1C` (centres undefined) came in with an RP-LC retention time of 862 s.

Compound `O=C(Nc1cnc(N2CCOCC2)c(C(=O)O)c1)c1ccc(Br)cc1` had an RP-LC retention time of 715 s. `CC(C)CNC(=O)CCn1c(=O)c2ccccc2n2c(=O)n(Cc3ccccc3)nc12` showed an RP-LC retention time of 882 s. In the case of `CCCc1nc2cccnc2n1C1CCN(C(=O)c2ccc(OC)nc2)C1` (centres undefined) it was 588 s; in that of `Cc1sc(C)c(S(=O)(=O)Nc2cccc(Cl)c2)c1-c1cc(C(F)(F)F)on1`, 1190 s. `CN(CCCNC(=O)C1CCN(c2nc3ccccc3n(C)c2=O)CC1)C1CCCCC1`: the RP-LC retention time worked out at 650 s. The same measure for `CCc1cccc(NC(=O)N2CCN(c3cc(C)nc(N4CCCC4)n3)CC2)c1`: 704 s; for `CCOc1cccc(-c2noc(Cn3ccn(-c4ccc(Cl)cc4)c(=O)c3=O)n2)c1`: 895 s. As for `CCNc1cc(N2CCCC(CCC(=O)NCc3ccccc3OC)C2)ncn1` (centres undefined), the RP-LC retention time is 656 s.

Take `Cc1cnc(C2CCC2)n1CC1CCN(S(=O)(=O)c2ccccc2)CC1`: the RP-LC retention time came out at 686 s.

For the compound `Fc1ccc(OCc2cn(C3CN(Cc4cccc(F)c4)C3)nn2)cc1`, the RP-LC retention time came out at 688 s. The same measure for `CCOC(=O)c1cccc(Nc2c(C(=O)N3CCCCC3C)cnc3nc(C)ccc23)c1` (centres undefined): 666 s; for `COc1ccc(-n2cc(C(=O)Nc3ccc(SC)cc3)nn2)cc1`: 966 s; for `CCN1CCN(CCCNC(=O)c2c(-c3ccc(Br)s3)noc2C)CC1`: 594 s. The same measure for `CCN(CC)c1ccc(NC(=O)C2CCCN(S(=O)(=O)c3cn(C(C)C)cn3)C2)c(C)c1` (centres undefined): 622 s; for `Cc1ccc(-c2noc(Cc3nnc(-c4ccc(F)cc4)o3)n2)cc1C`: 1120 s; for `Cc1ccn2cc(C(=O)N3CCN(c4ccccc4C)CC3)nc2c1`: 901 s. In the case of `CCc1onc(C)c1C1CCCN1C(=O)Cc1ccccc1F` (centres undefined) it was 823 s; in that of `O=[N+]([O-])c1ccc(CSc2ncnc3c2ncn3[C@@H]2O[C@H](CO)[C@H](O)C2O)cc1` (some centres undefined), 759 s. As to `CC1Cc2ccccc2N1S(=O)(=O)c1cc2c3c(c1)CCC(=O)N3CCC2` (centres undefined), the RP-LC retention time was 961 s. In the case of `O=C(/C=C/c1ccccc1)Nc1nc(-c2ccccc2)cs1` it was 1070 s; in that of `Cc1noc2ncnc(N3CCCC(C(=O)N4CCN(c5ccc(Cl)cc5)CC4)C3)c12` (centres undefined), 931 s. In the case of `CCCc1nnsc1C(=O)NCCCC(=O)Nc1cccc2cccnc12`, the RP-LC retention time worked out at 791 s. On to `O=C(c1ccoc1)N1CCN(c2cc(-c3ccc(Cl)cc3)[nH]n2)CC1`, for which the RP-LC retention time was 774 s. With `COCCCNC(=O)c1ccc(-c2nc3cccnc3n(C3CCCC3)c2=O)cc1`, the RP-LC retention time worked out at 867 s.

Compound `COCCNC(=O)C1CCN(c2cnc(N3CCCCCC3)nc2)CC1` registered an RP-LC retention time of 617 s. `Cc1noc(-c2ccc(OC3CN(C(=O)c4cc(F)ccc4F)C3)cc2)n1` gave an RP-LC retention time of 868 s. `NS(=O)(=O)c1ccc(CCNCc2ccc(-c3ccccc3F)o2)cc1` displayed an RP-LC retention time of 643 s.

Turning to `Cc1ccc(F)cc1NC(=O)c1cnc2c(c1)c(=O)n(C)c(=O)n2-c1ccccc1`, the RP-LC retention time was 881 s.

Compound `CCc1cc(=O)n(CC(=O)Nc2cccc(Br)c2)c(N2CCOCC2)n1` registered an RP-LC retention time of 831 s. The same measure for `O=C(Cn1nc2c(N3CCc4ccccc4C3)nccn2c1=O)NC1CCCCC1`: 865 s; for `Cc1cc2n(n1)CCCN2C(=O)CCC(=O)N1CCN(c2ccccn2)CC1`: 555 s; for `Cc1ccccc1Cc1nc(-c2ccnc(N3CCOCC3)c2)no1`: 908 s. The same measure for `COc1ccc(NC(=O)N2C[C@@H]3C[C@H]2C[C@@H]3NC(=O)c2cccs2)cc1F`: 729 s.
